Source: patent publication US20100143332A1, “COMBINATION THERAPY FOR PROLIFERATIVE DISORDERS” (Schering Corporation, priority 2006, published 2010)

Key:
[1] = test system: γ-H2A.X phosphorylation in U20S cells; assay: γ-H2A.X phosphorylation by intracellular staining and FACS (marker of double-stranded DNA breaks); type: cell-based, Human
Method: (§1) Cell lines, drugs, and siRNA treatment materials and methods are as follow. Human U20S osteosarcoma cells are grown in DMEM (Mediatech, Herndon, Va.) supplemented with 10% FBS (JRH BioSciences, St. Louis, Mo.), 200 U/ml penicillin, 200 μg/ml streptomycin, and 300 μg/ml L-Glutamine (Cambrex). HU (Sigma, St. Louis, Mo.) is used at 1 mM for 15 hours.
(§2) Cells are transfected with 50 nM siRNA for Chk1, 100 nM siRNA for Luciferase (Luc), PolA, PolE, PolD1, and ATR duplexes using Lipofectamine 2000 (Invitrogen, Carlsbad, Calif.) according to the manufacturer's protocol.
Flow cytometric analysis, e.g. γ-H2AX detection for DNA damage and BrdU incorporation for cell cycle analysis, is performed as described previously (Cho et al. (2005) Cell Cycle 4:131) and analyzed with a BD LSR II (BD BioSciences, San Jose, Calif.) using FacsDIVA software.

[2] = test system: Chk1 S345 phosphorylation in U20S cells; assay: Western blot of Chk1 S345 phosphorylation in cell extracts; type: cell-based, Human; conditions: for Chk1 S345 phosphorylation after antimetabolite treatment: 1 mM HU, 5 μM Gem or 5 μM Ara-C for 2 h, FIG. 1
Method: as §1, §2
(§3) Western blot analysis of siRNA knockdowns is performed as follows. Cell pellets are trypsinized, washed with PBS, and lysed in 2×SDS sample buffer (Invitrogen, Carlsbad, Calif.). Protein extracts are separated by SDS-polyacrylamide gel electrophoresis and transfer to Immobilon®-P membrane (Millipore, Billarica, Mass.). Antibodies used in this study are obtained from Santa Cruz Biotechnology, Inc. (Santa Cruz, Calif.) (Polα, Polε, Polδ, Rad17), Cell Signaling Technology, Inc. (Danvers, Mass.) (pS345-Chk1, pT68-Chk2), Stressgen Bioreagents Corp. (San Diego, Calif.) (Chk1), and Bethyl Laboratories, Inc. (Montgomery, Tex.) (pS33-RPA 32).
U20S cells were untreated (“-”) or treated with 1 mM HU, 5 μM Gem, or 5 μM Ara-C for 2 h. Cell extracts were prepared and immunoblotted with a phospho-Chk1 S345 antibody to show phosphorylated Chk1 (Chk1 S345) and Chk1 (loading control). […] Liu et al. (2000) Genes Dev. 14:1448; Zhao & Piwnica-Worms (2001) Mol. Cell. Biol. 21:4129; Capasso et al. (2002) J. Cell Sci. 115:4555.
At 48 h after siRNA transfections, extracts were prepared and immunoblotted with the indicated antibodies. HU-treated cells were treated with 1 mM HU for 7 h before harvest.

[3] = test system: RPA32 S33 phosphorylation in U20S cells; assay: Western blot of RPA32 S33 phosphorylation in cell extracts; type: cell-based, Human; conditions: 1 mM HU 15 h, cells transfected with luciferase (control) siRNA, FIG. 10
Method: as §1, §2, §3
Cells were tested for Chk1 and RPA32 phosphorylation as a function of depletion of DNA polymerases alone and in combination with depletion of Chk1. […]

[4] = test system: Chk1 S345 in Polα complexes, U20S cells; assay: Time course of Chk1 S345 accumulation in Polα immunoprecipitates; type: cell-based, Human; conditions: HU for 0.5, 1, 2 and 15 h; first time point tested; FIG. 9
Method: Immunoprecipitation is performed as follows. Cell pellets are lysed in LT250 buffer (50 mM Tris-HCl pH 7.4, 250 mM NaCl, 5 mM EDTA, 0.1% NP-40, 10% glycerol, 1 mM DTT, 1:100 dilution of phosphatase inhibitor set I and II, and protease inhibitor cocktail set 111 (Calbiochem, San Diego, Calif.). Protein concentrations are determined using the Bio-Rad Protein Assay (Bio-Rad, Hercules, Calif.). For immunoprecipitation, protein lysates (2 mg) are incubated with anti-Polα (SJK 132-20) antibody cross-linked to ImmunoPure Protein G beads for 4 hours at 4° C. Pab419 monoclonal Ab against SV40 T antigen is typically used as a negative control.
(§4) A time course of HU induction of Chk1 phosphorylation was performed. U20S cells were treated with HU for 0.5, 1, 2 and 15 h, and protein extracts were prepared for immunoprecipitation. Polα was immunoprecipitated with Polα antibodies (SJK132-20) cross-linked to protein G. Western blots were performed using anti-Polα, anti-Chk1, and anti-Chk1 S345 antibodies (FIG. 9). Chk1 phosphorylation was complete at even the earliest timepoint, and both Chk1 and Chk1 S345P co-immunoprecipitated with Polα.

[5] = molecular target: T1, human DNA polymerase alpha (human, UniProt P09884 1-1462); assay: immunoprecipitation with SJK132-20, HU time course, western blot
T1 construct: Endogenous protein in lysates of human U20S osteosarcoma cells; Other subunits of the polymerase alpha complex may have been present in the immune complexes; also called Polα; PolA gene product
T1 sequence: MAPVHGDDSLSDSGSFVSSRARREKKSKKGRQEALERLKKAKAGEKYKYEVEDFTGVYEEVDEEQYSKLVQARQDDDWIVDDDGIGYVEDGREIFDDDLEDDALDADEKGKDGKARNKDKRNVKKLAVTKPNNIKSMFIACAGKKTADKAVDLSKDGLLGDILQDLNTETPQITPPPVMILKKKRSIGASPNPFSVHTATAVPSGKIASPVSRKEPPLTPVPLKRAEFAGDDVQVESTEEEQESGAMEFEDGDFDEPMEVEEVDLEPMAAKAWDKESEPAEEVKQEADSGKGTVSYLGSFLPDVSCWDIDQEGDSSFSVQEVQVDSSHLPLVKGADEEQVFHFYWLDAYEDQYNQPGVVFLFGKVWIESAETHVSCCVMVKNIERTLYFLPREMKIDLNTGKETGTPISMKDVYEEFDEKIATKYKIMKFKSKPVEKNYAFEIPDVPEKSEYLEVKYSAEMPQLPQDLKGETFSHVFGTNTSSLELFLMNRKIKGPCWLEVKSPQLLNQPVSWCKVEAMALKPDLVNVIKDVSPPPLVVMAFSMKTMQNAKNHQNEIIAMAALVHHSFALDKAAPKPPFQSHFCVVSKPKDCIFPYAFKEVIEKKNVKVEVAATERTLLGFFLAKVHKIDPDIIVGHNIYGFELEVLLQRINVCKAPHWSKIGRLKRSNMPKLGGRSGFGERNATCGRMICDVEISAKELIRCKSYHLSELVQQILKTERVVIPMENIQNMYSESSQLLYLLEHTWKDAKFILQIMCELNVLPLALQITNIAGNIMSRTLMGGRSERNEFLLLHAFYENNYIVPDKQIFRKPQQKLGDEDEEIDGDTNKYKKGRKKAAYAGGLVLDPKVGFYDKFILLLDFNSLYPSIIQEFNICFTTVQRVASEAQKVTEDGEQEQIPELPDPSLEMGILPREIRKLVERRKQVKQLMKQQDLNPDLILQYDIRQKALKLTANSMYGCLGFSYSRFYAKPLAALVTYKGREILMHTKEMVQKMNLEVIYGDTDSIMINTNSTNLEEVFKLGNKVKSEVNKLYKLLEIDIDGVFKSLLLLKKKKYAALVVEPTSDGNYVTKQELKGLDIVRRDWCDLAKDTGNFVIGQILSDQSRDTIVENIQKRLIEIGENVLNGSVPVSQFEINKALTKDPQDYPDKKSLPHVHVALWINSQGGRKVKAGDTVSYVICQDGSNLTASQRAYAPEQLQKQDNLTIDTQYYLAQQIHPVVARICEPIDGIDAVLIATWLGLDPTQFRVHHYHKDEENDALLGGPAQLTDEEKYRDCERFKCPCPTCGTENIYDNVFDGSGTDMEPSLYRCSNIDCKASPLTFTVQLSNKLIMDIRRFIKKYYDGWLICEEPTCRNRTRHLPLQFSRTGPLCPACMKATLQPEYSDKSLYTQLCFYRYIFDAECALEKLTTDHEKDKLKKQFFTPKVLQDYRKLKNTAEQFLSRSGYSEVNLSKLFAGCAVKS
Method: as §4

COc1ccc(CNC(=O)c2cccc(-c3cnc(N)c(C(=O)N[C@H]4CCCNC4)n3)c2)cc1 [3-amino-6-{3-[({[4-(methyloxy)phenyl]methyl}amino)carbonyl]phenyl}-N-[(3S)-piperidin-3-yl]pyrazine-2-carboxamide] was tested, and the “percentage of cells exhibiting substantial double-stranded DNA breaks (γ-H2AX)” value ([1]; Chk1 inhibitor 2.5 μM, 2 hours, combined with siRNA ablation of PolA, controls less than 1%, FIG. 4B) was “over 50%”.

In the case of Nc1ccn([C@@H]2O[C@H](CO)[C@@H](O)C2(F)F)c(=O)n1 [Gem, gemcitabine], the “Chk1 S345 phosphorylation after antimetabolite treatment” value [2] is reported as “induced substantial phosphorylation of Chk1”.

For Nc1ccn([C@@H]2O[C@H](CO)[C@@H](O)[C@@H]2O)c(=O)n1 [Ara-C, cytarabine], the “Chk1 S345 phosphorylation after antimetabolite treatment” value [2] was “induced substantial phosphorylation of Chk1”.

In the case of NC(=O)NO [HU, hydroxyurea], the “H2A.X phosphorylation compared to control samples” value ([1]; FIG. 4A, average of three experiments) is reported as “modestly increase”, the “cells exhibiting DNA damage compared with control cultures” value ([1]; FIGS. 2B and 2C, siRNA 48 h, HU 1 mM with control siRNA) is reported as “approximately 10 fold” and the “Chk1 S345 phosphorylation in whole cell extracts” value ([2]; 1 mM HU 15 h, cells transfected with luciferase (control) siRNA, FIG. 10) is reported as “strong Chk1 S345 phosphorylation”. The “Chk1 S345 phosphorylation after antimetabolite treatment” value [2] was “induced substantial phosphorylation of Chk1”, the “RPA32 phosphorylation in whole cell extracts” value [3] was “low level RPA32 phosphorylation” and the “time at which Chk1 S345 response in Polα complexes was complete” value [4] was at most 0.5 h.

B1: Chk1 S345P (Chk1 phosphorylated at S345) (enzyme)
chain: MAVPFVEDWDLVQTLGEGAYGEVQLAVNRVTEEAVAVKIVDMKRAVDCPENIKKEICINKMLNHENVVKFYGHRREGNIQYLFLEYCSGGELFDRIEPDIGMPEPDAQRFFHQLMAGVVYLHGIGITHRDIKPENLLLDERDNLKISDFGLATVFRYNNRERLLNKMCGTLPYVAPELLKRREFHAEPVDVWSCGIVLTAMLAGELPWDQPSDSCQEYSDWKEKKTYLNPWKKIDSAPLALLHKILVENPSARITIPDIKKDRWYNKPLKKGAKRPRVTSGGVSESPSGFSKHIQSNLDFSPVNSASSEENVKYSSSQPEPRTGLSLWDTSPSYIDKLVQGISFSQPTCPDHMLLNSQLLGTPGSSQNPWQRLVKRMTRFFTKLDADKSYQCLKETCEKLGYQWKKSCMNQVTISTTDRRNNKLIFKVNLLEMDDKILVDFRLSKGDGLEFKRHFLKIKGKLIDIVSSQKVWLPAT
modifications: phosphoserine at 345 (Chk1 S345P)
notes: also called phospho-S345 Chk1; Chk S345P
B1: binds [5].
